Data taken from ChEMBL document CHEMBL6121040, “Synthesis and biological assessment of BUB1B inhibitors for the treatment of clear cell renal cell carcinoma” (Eur J Med Chem, 2025).
The source made the active and inactive calls. The calls are words filed in the database; no cut-off is given here.

Experiments:
CAKI-1 [1] = experiment: Cytotoxicity against human CAKI-1 cells assessed as cell viability at 10 uM incubated for 1 day by MTT assay relative to control; assay type: functional; conditions: CAKI-1, 24 h, read-out: Activity
CAKI-1 [2] = experiment: Cytotoxicity against human CAKI-1 cells assessed as reduction in cell viability incubated for 1 day by MTT assay; assay type: functional, cell-based; conditions: CAKI-1, 24 h
[3] = target: T1, Mitotic checkpoint serine/threonine-protein kinase BUB1 beta (Homo sapiens, UniProt O60566); experiment: Inhibition of recombinant BUB1B (unknown origin) incubated for 60 mins in presence of [gamma-33P]-ATP by microplate scintillation counter analysis
CAKI-1 [4] = experiment: Cytotoxicity against human CAKI-1 cells assessed as necrotic cell death incubated for 3 days by LDH assay; assay type: functional, cell-based; conditions: CAKI-1, 72 h
CAKI-1 [5] = experiment: Cytotoxicity against human CAKI-1 cells assessed as reduction in cell viability incubated for 3 days by MTT assay; assay type: functional, cell-based; conditions: for IC50: CAKI-1, 72 h; for Activity: time 3.0 day
CAKI-1 [6] = experiment: Induction of apoptosis in human CAKI-1 cells assessed as increase in cleaved PARP level by measuring fold change at 10 uM incubated for 1 day by Western blot analysis (reference value: 1); assay type: functional
CAKI-1 [7] = experiment: Induction of apoptosis in human CAKI-1 cells assessed as increase in cleaved caspase-8 protein level at 10 uM incubated for 1 day by Western blot analysis; assay type: functional, cell-based
CAKI-1 [8] = experiment: Induction of apoptosis in human CAKI-1 cells assessed as decrease in Bcl-2 protein level by measuring fold change at 10 uM incubated for 1 day by Western blot analysis (reference value: 1); assay type: functional
[9] = Cytotoxicity against human HaCaT cells assessed as cell viability at 5 uM incubated for 1 day relative to control; assay type: toxicity, cell-based; conditions: read-out: Activity
CAKI-1 [10] = experiment: Induction of apoptosis in human CAKI-1 cells assessed as increase in cleaved caspase-3 protein level at 10 uM incubated for 1 day by Western blot analysis; assay type: functional, cell-based
CAKI-1 [11] = experiment: Cytotoxicity against human CAKI-1 cells assessed as cell viability at 10 uM incubated for 3 day by MTT assay relative to control; assay type: functional; conditions: CAKI-1, 72 h, read-out: Activity
[12] = Cytotoxicity against human MRC5 cells assessed as cell viability at 1 uM incubated for 1 day relative to control; assay type: toxicity, cell-based; conditions: read-out: Activity
CAKI-1 [13] = experiment: Induction of apoptosis in human CAKI-1 cells assessed as increase in cleaved caspase-9 protein level at 10 uM incubated for 1 day by Western blot analysis; assay type: functional, cell-based
[14] = Downregulation of BUB1B protein expression level in human CAKI-1 cells at 10 uM incubated for 1 day by Western blot analysis (Rvb =1); assay type: functional
[15] = Cytotoxicity against human MRC5 cells assessed as cell viability at 5 uM incubated for 1 day relative to control; assay type: toxicity, cell-based; conditions: read-out: Activity
[16] = target: T1, Mitotic checkpoint serine/threonine-protein kinase BUB1 beta; experiment: Destabilization of BUB1B in human CAKI-1 cells assessed as reduction in BUB1B protein level at 20 uM preincubated for 1 hrs followed by incubation under 45 degreeC for 3 mins by CETSA analysis (reference value: 1); assay type: cell-based; conditions: time 63.0 min
[17] = Downregulation of BUB1B protein expression level in human CAKI-1 cells at IC50 concentration incubated for 1 day by Western blot analysis (Rvb =1); assay type: functional
CAKI-1 [18] = experiment: Induction of apoptosis in human CAKI-1 cells assessed as increase in cleaved PARP level by measuring fold change at IC50 concentration incubated for 1 day by Western blot analysis (reference value: 1); assay type: functional
[19] = Cytotoxicity against human HaCaT cells assessed as cell viability at 1 uM incubated for 1 day relative to control; assay type: toxicity, cell-based; conditions: read-out: Activity
CAKI-1 [20] = experiment: Induction of apoptosis in human CAKI-1 cells assessed as decrease in Bcl-2 protein level by measuring fold change at IC50 concentration incubated for 1 day by Western blot analysis (reference value: 1); assay type: functional
CAKI-1 [21] = experiment: Cytotoxicity against human CAKI-1 cells assessed as reduction in cell viability at 10 uM by MTT assay; assay type: functional, cell-based; conditions: time 1-3 day

T1 sequence (O60566 whole entry): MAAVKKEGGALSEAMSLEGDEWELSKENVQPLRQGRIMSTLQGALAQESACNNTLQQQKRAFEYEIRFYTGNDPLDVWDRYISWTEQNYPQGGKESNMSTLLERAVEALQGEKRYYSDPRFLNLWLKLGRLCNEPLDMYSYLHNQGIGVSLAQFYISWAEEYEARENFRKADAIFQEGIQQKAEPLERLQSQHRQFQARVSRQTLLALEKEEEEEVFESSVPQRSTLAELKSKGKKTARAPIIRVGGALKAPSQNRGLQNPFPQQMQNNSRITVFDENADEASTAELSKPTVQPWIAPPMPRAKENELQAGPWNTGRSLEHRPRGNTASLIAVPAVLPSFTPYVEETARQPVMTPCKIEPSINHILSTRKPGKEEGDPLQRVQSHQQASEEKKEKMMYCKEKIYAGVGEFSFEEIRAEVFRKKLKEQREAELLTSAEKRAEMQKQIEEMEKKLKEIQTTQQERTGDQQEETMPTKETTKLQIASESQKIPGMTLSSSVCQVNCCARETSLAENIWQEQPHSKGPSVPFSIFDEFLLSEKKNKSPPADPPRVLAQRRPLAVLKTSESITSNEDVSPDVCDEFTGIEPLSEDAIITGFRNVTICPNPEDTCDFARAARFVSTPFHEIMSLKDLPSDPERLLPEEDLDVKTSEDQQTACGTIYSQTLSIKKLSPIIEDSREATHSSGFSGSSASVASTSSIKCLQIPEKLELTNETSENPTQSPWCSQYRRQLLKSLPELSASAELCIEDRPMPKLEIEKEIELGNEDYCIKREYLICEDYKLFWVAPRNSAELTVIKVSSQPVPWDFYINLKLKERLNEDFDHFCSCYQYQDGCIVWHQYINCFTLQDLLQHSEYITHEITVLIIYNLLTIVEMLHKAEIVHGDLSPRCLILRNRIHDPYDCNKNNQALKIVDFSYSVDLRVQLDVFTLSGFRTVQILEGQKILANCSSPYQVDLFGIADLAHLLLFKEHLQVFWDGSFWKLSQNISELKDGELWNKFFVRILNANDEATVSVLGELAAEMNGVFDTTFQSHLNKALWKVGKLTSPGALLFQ

Cc1ccc(Nc2ncc(C)c(Nc3cccc(S(=O)(=O)NC(C)(C)C)c3)n2)cc1Nc1nc(-c2cccnc2)cs1
viability at 10 µM (CAKI-1 [1]): 43.5%

Cc1cnc(Nc2ccc(N3CCN(C(=O)c4cccc(F)c4)CC3)cc2)nc1Nc1cccc(S(=O)(=O)NC(C)(C)C)c1
viability at 10 µM (CAKI-1 [1]): 37.3%

COc1ccc(Nc2ncc(C)c(Nc3cccc(S(=O)(=O)NC(C)(C)C)c3)n2)cc1OC
viability at 10 µM (CAKI-1 [1]): 36.6%

COc1cc(Nc2ncc(C)c(Nc3ccc(N4CCN(C)CC4)cc3)n2)cc(OC)c1OC
viability at 10 µM (CAKI-1 [1]): 39.9%

Cc1cnc(Nc2ccc(OCc3cccc(F)c3)c(Cl)c2)nc1Nc1cccc(S(=O)(=O)NC(C)(C)C)c1
viability at 10 µM (CAKI-1 [1]): 96.1%

Cc1cnc(Nc2ccc(OCCCN3CCOCC3)cc2)nc1Nc1cccc(S(=O)(=O)NC(C)(C)C)c1
viability at 10 µM (CAKI-1 [1]): 41.9%

COc1cc(Nc2ncc(C)c(Nc3cccc(S(=O)(=O)N4CCOCC4)c3)n2)cc(OC)c1
viability at 10 µM (CAKI-1 [1]): 45.4%

Cc1cc(NS(=O)(=O)c2ccc(Nc3ncc(C)c(Nc4cccc(S(=O)(=O)NC(C)(C)C)c4)n3)cc2)no1
viability at 10 µM (CAKI-1 [1]): 95.5%

Cc1ccccc1NC(=O)N1CCN(c2ccc(Nc3ncc(C)c(Nc4cccc(S(=O)(=O)NC(C)(C)C)c4)n3)cc2)CC1
viability at 10 µM (CAKI-1 [1]): 45%

COc1cc(Nc2ncc(C)c(Nc3cccc(S(=O)(=O)NC(C)(C)C)c3)n2)cc(OC)c1
viability at 10 µM (CAKI-1 [1]): 46.5% | IC50 (CAKI-1 [2]): 2.79 µM

Cc1cnc(Nc2ccc(N3CCN(C(=O)N(C)C)CC3)cc2)nc1Nc1cccc(S(=O)(=O)NC(C)(C)C)c1
viability at 10 µM (CAKI-1 [1]): 36.2%

Cc1ccc(Nc2ncc(C)c(Nc3cccc(S(=O)(=O)NC(C)(C)C)c3)n2)cc1S(N)(=O)=O
viability at 10 µM (CAKI-1 [1]): 43.2%

Cc1cnc(Nc2ccc(N3CCN(C(=O)Nc4ccccc4F)CC3)cc2)nc1Nc1cccc(S(=O)(=O)NC(C)(C)C)c1
viability at 10 µM (CAKI-1 [1]): 46.7%

CNC(=O)N1CCN(c2ccc(Nc3ncc(C)c(Nc4cccc(S(=O)(=O)NC(C)(C)C)c4)n3)cc2)CC1
viability at 10 µM (CAKI-1 [1]): 40.6%

COc1ccc(Nc2ncc(C)c(Nc3cccc(S(=O)(=O)NC(C)(C)C)c3)n2)c(OC)c1
viability at 10 µM (CAKI-1 [1]): 66.5%

COc1ccccc1NC(=O)N1CCN(c2ccc(Nc3ncc(C)c(Nc4cccc(S(=O)(=O)NC(C)(C)C)c4)n3)cc2)CC1
viability at 10 µM (CAKI-1 [1]): 48.4%

COc1cccc(Nc2ncc(C)c(Nc3cccc(S(=O)(=O)NC(C)(C)C)c3)n2)c1OC
viability at 10 µM (CAKI-1 [1]): 78%

Cc1cnc(Nc2cccc(S(=O)(=O)N3CCOCC3)c2)nc1Nc1cccc(S(=O)(=O)NC(C)(C)C)c1
viability at 10 µM (CAKI-1 [1]): 60.6%

Cc1cnc(Nc2ccc(Oc3ccc(Cl)cc3)nc2)nc1Nc1cccc(S(=O)(=O)NC(C)(C)C)c1
viability at 10 µM (CAKI-1 [1]): 87.7%

Cc1cc(Nc2ncc(Cl)c(Nc3ccccc3S(=O)(=O)C(C)C)n2)c(OC(C)C)cc1C1CCNCC1 [CERITINIB]
IC50 [3]: 13.1 µM

C=CC(=O)N1CCN(c2ccc(Nc3ncc(C)c(Nc4cccc(S(=O)(=O)NC(C)(C)C)c4)n3)cc2)CC1
viability at 10 µM (CAKI-1 [1]): 44.6%

Cc1cnc(Nc2ccc(N3CCN(C(=O)N4CCCC4)CC3)cc2)nc1Nc1cccc(S(=O)(=O)NC(C)(C)C)c1
viability at 10 µM (CAKI-1 [1]): 43.1%

Cc1cnc(Nc2ccc(N3CCN(C(=O)N(C)c4ccccc4)CC3)cc2)nc1Nc1cccc(S(=O)(=O)NC(C)(C)C)c1
viability at 10 µM (CAKI-1 [1]): 44.5%

COc1cc(Nc2ncc(C)c(Nc3cccc(S(=O)(=O)NC(C)(C)C)c3)n2)c(Cl)cc1Cl
viability at 10 µM (CAKI-1 [1]): 108%

COc1ccc(S(=O)(=O)N2CCN(c3ccc(Nc4ncc(C)c(Nc5cccc(S(=O)(=O)NC(C)(C)C)c5)n4)cc3)CC2)cc1OC
viability at 10 µM (CAKI-1 [1]): 73.8%

Cc1cnc(Nc2cccc(S(=O)(=O)NC(C)(C)C)c2)nc1Nc1cccc(S(=O)(=O)NC(C)(C)C)c1
viability at 10 µM (CAKI-1 [1]): 64.7%

Cc1cnc(Nc2ccc(N3CCN(C)CC3)cc2)nc1Nc1cccc(S(=O)(=O)NC(C)(C)C)c1C
viability at 10 µM (CAKI-1 [1]): 52.1%

COc1cc(Nc2ncc(C)c(Nc3cccc(S(=O)(=O)NC4CCC4)c3)n2)cc(OC)c1OC
viability at 10 µM (CAKI-1 [1]): 33%

Cc1cnc(Nc2ccccc2P(C)(C)=O)nc1Nc1cccc(S(=O)(=O)NC(C)(C)C)c1
viability at 10 µM (CAKI-1 [1]): 84.4%

Cc1cnc(Nc2ccc(N3CCN(C(=O)Nc4ccccc4C(F)(F)F)CC3)cc2)nc1Nc1cccc(S(=O)(=O)NC(C)(C)C)c1
viability at 10 µM (CAKI-1 [1]): 39.7%

Cc1ccc(Nc2nc(Nc3ccc(N4CCN(C)CC4)cc3)ncc2C)cc1S(N)(=O)=O
viability at 10 µM (CAKI-1 [1]): 34.7%

Cc1cnc(Nc2ccc(N3CCN(S(=O)(=O)c4ccccc4)CC3)cc2)nc1Nc1cccc(S(=O)(=O)NC(C)(C)C)c1
viability at 10 µM (CAKI-1 [1]): 83.8%

COc1cc(Nc2ncc(C)c(Nc3cccc(S(=O)(=O)N4CCOCC4)c3)n2)cc(OC)c1OC
EC50 (CAKI-1 [4]): 41.2 µM | IC50 (CAKI-1 [5]): 2.9 µM | Activity (CAKI-1 [5]): Dose-dependent-effect | viability at 10 µM (CAKI-1 [1]): 35.8% | fold change (FC) (CAKI-1 [6]): 10.69 | Activity (CAKI-1 [7]): Active | fold change (FC) (CAKI-1 [8]): 0.64 | viability at 24 h, 5 µM [9]: 75.3% | Activity (CAKI-1 [10]): Active | viability at 10 µM (CAKI-1 [11]): 38.5% | viability at 24 h, 1 µM [12]: 89.2% | Activity (CAKI-1 [13]): Active | fold change (FC) [14]: 0.12 | viability at 24 h, 5 µM [15]: 70.6% | IC50 [3]: 9.67 µM | IC50 (CAKI-1 [2]): 1.83 µM | fold change (FC) [16]: 0.65 | fold change (FC) [17]: 0.22 | fold change (FC) (CAKI-1 [18]): 3.76 | viability at 24 h, 1 µM [19]: 105% | fold change (FC) (CAKI-1 [20]): 0.5

C#CCN1CCN(c2ccc(Nc3ncc(C)c(Nc4cccc(S(=O)(=O)NC(C)(C)C)c4)n3)cc2)CC1
viability at 10 µM (CAKI-1 [1]): 41.2%

Cc1cn(-c2cc(Nc3ncc(C)c(Nc4cccc(S(=O)(=O)NC(C)(C)C)c4)n3)cc(C(F)(F)F)c2)cn1
viability at 10 µM (CAKI-1 [1]): 49.6%

COc1ncnc(NS(=O)(=O)c2ccc(Nc3ncc(C)c(Nc4cccc(S(=O)(=O)NC(C)(C)C)c4)n3)cc2)c1OC
viability at 10 µM (CAKI-1 [1]): 104%

COc1cnccc1Nc1nc(-c2nn(Cc3c(F)cc(OCCO)cc3F)c3ccccc23)ncc1OC
EC50 (CAKI-1 [4]): 15.9 µM | IC50 (CAKI-1 [5]): 10.4 µM | Activity (CAKI-1 [5]): Dose-dependent-effect | viability at 10 µM (CAKI-1 [1]): 57.8% | fold change (FC) (CAKI-1 [6]): 1.23 | Activity (CAKI-1 [7]): inactive | fold change (FC) (CAKI-1 [8]): 1.03 | Activity (CAKI-1 [10]): inactive | viability at 10 µM (CAKI-1 [11]): 49.7% | Activity (CAKI-1 [13]): inactive | fold change (FC) [14]: 0.73 | IC50 [3]: > 100 µM | IC50 (CAKI-1 [2]): 24.4 µM | fold change (FC) [16]: 1.33 | Activity (CAKI-1 [21]): Time-dependent-effect | fold change (FC) [17]: 0.65 | fold change (FC) (CAKI-1 [18]): 2.89 | fold change (FC) (CAKI-1 [20]): 0.62

COc1cc(Nc2ncc(C)c(Nc3cccc(S(=O)(=O)NC4CCC4)c3)n2)cc(OC)c1
viability at 10 µM (CAKI-1 [1]): 42%

Cc1ccc(Nc2ncc(C)c(Nc3cccc(S(=O)(=O)NC(C)(C)C)c3)n2)cc1Nc1nccc(-c2cccnc2)n1
viability at 10 µM (CAKI-1 [1]): 77%
